Results reported in patent publication US9630958B2, “Triazine compounds” (Sphaera Pharma Pte. Ltd., priority 2012, dated 2017).

Columns and labels:
[1] = target: T1, Recombinant mTOR (FRAP1) (Homo sapiens, UniProt P42345); experiment: mTOR in vitro kinase assay (TR-FRET, phosphorylation of GFP-4E-BP1); assay type: biochemical; conditions: for IC50: 8 μM ATP, 400 nM GFP-4E-BP1; for inhibition at 1 µM: 1 uM compound, read-out: mTOR % Inhib@1 uM
T1 construct: purchased Invitrogen
Method: Compounds were evaluated for mTOR activity using an in vitro kinase assay.
mTOR activity is measured in vitro by determining the level of phosphorylation of the protein substrate 4EBP-1. The phosphorylation of GFP-4E-BP1 at threonine residue is recognized by Ab Tb-Anti-p4EBP1, which results in time resolved fluorescence energy transfer (TR-FRET) between GFP and Terbium in the Ab-Protein complex.
Recombinant mTOR (FRAP1), Kinase reaction buffer, GFP-4E-BP1 and LanthaScreen Tb-anti-4E-BP1 (pThr46), TR FRET dilution buffer, Kinase Quench Buffer were obtained from Invitrogen.
Kinase reactions were performed in 10 μl volume in Corning white 384 well plates. […] The reaction was initiated by the addition of substrate (GFP-4E-BP1) and ATP at a final conc. of 400 nM and 8 μM ATP in the reaction respectively. The kinase reaction was allowed to proceed for 1 hour at room temperature before a 10 μL preparation of kinase quench buffer and Tb-labeled Antibody in TR-FRET dilution buffer was added. The final concentration of the antibody in the assay well is 2 nM and the final concentration of EDTA is 10 mM. The plate was incubated at room temperature for 1 h.
(§1) FRET signal was read in Envision Multilabel Reader with the following filters:
Excitation-330 nm and Emission 486 nm (donor) and 520 nm (acceptor).
TR FRET Ratio (Fluorescence 520 nm/Fluorescence 486 nm) was plotted against the concentration of inhibitor and data was fit to Non Linear Regression curve fit (sigmoidal dose response curve with variable slope-four parameters) using Graph Pad Prism 5.

[2] = target: T2, PI3 Kinase alpha (p110 alpha/p85 alpha) (Homo sapiens, UniProt P42336); experiment: PI3K TR-FRET assay (Transcreener ADP2); assay type: biochemical; conditions: for IC50: PI3K alpha, 1 μM ATP, 50 μM PIP2; for inhibition at 1 µM: 1 uM compound, read-out: PI3K % Inhib@1 uM
T2 construct: purchased Invitrogen
T2 sequence (P42336 whole entry): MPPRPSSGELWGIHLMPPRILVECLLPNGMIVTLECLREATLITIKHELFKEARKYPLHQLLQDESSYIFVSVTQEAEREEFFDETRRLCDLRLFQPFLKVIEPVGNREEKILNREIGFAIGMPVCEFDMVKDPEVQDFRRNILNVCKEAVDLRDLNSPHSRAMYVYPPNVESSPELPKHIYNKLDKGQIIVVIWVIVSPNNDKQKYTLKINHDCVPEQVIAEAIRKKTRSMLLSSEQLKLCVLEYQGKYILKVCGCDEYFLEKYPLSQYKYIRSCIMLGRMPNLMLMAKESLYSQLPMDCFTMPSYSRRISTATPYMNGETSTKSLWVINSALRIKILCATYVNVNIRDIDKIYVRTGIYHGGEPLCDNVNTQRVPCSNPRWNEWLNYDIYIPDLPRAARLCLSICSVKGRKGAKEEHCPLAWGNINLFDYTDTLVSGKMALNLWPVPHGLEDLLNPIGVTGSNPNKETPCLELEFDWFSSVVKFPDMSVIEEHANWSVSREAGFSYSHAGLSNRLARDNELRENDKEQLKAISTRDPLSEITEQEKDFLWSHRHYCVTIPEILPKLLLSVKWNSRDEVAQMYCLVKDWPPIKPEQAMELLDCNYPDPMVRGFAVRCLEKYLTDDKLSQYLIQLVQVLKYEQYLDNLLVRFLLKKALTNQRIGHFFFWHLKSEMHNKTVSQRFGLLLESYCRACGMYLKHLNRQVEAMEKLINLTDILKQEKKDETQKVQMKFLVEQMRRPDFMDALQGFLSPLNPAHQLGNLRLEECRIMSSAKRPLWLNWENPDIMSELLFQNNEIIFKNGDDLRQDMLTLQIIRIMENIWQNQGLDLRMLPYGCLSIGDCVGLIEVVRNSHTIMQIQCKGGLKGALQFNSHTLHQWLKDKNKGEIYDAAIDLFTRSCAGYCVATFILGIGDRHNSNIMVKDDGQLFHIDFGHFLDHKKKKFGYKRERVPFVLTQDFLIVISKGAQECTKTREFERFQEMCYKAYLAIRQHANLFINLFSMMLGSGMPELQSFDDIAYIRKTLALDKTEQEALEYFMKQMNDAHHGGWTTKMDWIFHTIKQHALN
T2 sequence (P27986 whole entry partner): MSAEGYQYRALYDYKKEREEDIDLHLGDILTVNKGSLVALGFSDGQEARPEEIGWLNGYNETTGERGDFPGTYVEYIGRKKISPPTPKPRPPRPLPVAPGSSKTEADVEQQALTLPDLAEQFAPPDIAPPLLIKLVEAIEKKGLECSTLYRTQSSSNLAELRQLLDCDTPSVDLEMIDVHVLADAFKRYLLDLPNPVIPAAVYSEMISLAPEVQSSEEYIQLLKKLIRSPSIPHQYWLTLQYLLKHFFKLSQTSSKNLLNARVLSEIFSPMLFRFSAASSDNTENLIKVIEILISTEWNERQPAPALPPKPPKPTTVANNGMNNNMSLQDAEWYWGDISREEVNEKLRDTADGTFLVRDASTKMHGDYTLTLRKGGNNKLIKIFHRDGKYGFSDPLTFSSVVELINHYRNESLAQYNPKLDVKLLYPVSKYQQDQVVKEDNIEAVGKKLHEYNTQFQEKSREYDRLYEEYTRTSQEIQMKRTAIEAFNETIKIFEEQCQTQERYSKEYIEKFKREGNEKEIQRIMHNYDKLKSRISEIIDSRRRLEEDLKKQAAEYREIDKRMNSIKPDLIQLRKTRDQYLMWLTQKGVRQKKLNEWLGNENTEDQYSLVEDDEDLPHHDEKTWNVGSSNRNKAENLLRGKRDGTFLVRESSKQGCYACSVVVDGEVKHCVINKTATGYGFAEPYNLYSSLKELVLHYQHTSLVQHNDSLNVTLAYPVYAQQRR
Method: Enzymatic activity of PI3K alpha was measured using Time resolved Fluorescence resonance energy transfer (TR-FRET) assay. This assay utilizes ADP detection as a means to screen inhibitor potency of compounds. The Transcreener ADP2 TR-FRET Red Assay is a competitive immunoassay for ADP with a far-red, TR-FRET readout and it has been used for this purpose. The assay can be used for any enzyme class that produces ADP (Kinases, ATPases). It consists of ADP HiLyte647 Tracer, ADP^2 Antibody-Tb conjugate (800 nM), stop & detect buffer, 5 mM ATP, 5 mM ADP. The ADP HiLyte647 Tracer is bound to an ADP^2 Antibody-Tb conjugate. The excitation of the terbium complex in the UV range results in energy transfer to the tracer and emission at a higher wavelength after a time delay ADP produced by the target enzyme displaces the tracer which causes decrease in TR-FRET.
The reaction buffer used for the assay was 50 mM HEPES, pH 7.4.3 mM MgCl2, 0.05% CHAPS, 50 mM NaCl, 2 mM DTT, 1 mM EGTA. PI3 Kinase alpha (p110 alpha/p85 alpha) and PIP2 Substrate (diC8,) were procured from Invitrogen and Echelon respectively.
Kinase reactions were performed in 10 μl volume in Corning white 384 well plates. […] Reaction was initiated by the addition of substrate (PIP2) and ATP at final conc. of 50 μM and 1 μM ATP in the reaction respectively. Kinase reactions were allowed to proceed for 1 hour at room temperature before a 10 μL preparation of Transcreener ADP detection mix was added. Plate was incubated at room temperature for 1 hr. ADP-ATP standard curves were also prepared.
as §1
Excitation-330 nm and Emission 615 nm (donor) and 665 nm (acceptor). TR FRET Ratio (Fluorescence 665 nm/Fluorescence 615 nm) was converted to amount of product formed using the standard curve generated. Percentage inhibition was calculated and plotted against the concentration of inhibitor and data was fit to Non Linear Regression curve fit (sigmoidal dose response curve with variable slope-four parameters) using Graph pad prism 5 and IC50 was calculated for the compound.

T1 sequence (P42345 1360-2549 limits assumed): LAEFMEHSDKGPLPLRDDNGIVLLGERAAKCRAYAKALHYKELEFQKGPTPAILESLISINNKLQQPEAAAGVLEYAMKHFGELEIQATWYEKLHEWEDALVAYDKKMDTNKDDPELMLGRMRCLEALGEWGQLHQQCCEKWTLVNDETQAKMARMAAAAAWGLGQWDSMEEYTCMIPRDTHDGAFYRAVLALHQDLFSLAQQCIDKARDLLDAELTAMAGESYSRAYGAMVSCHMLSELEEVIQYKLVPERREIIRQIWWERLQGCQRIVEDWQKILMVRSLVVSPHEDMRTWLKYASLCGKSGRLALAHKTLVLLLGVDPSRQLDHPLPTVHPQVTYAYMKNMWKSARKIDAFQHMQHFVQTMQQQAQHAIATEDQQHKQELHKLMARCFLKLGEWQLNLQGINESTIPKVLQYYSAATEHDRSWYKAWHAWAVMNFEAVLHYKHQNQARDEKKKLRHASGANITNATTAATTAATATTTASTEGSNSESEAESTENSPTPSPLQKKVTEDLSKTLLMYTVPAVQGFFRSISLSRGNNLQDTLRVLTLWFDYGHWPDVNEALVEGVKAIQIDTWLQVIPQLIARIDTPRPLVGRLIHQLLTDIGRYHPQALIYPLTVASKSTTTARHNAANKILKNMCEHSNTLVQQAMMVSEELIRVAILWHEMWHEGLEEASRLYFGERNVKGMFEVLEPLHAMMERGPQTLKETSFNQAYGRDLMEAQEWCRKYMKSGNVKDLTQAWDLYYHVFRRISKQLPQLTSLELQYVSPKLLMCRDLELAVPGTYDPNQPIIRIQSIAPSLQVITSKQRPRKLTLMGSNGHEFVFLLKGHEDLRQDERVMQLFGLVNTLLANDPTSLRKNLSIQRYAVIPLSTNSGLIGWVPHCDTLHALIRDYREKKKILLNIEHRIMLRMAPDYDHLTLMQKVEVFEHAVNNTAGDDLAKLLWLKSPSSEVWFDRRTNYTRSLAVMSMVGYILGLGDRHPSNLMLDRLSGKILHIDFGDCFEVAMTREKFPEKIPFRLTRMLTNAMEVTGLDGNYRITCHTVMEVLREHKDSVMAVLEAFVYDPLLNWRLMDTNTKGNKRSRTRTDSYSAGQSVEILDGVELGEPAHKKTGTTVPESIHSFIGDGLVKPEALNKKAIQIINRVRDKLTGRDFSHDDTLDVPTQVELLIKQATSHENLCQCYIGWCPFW

SMILES	IC50 [1] [nM]	IC50 [2] [nM]	inhibition at 1 µM [1] [%]	inhibition at 1 µM [2] [%]
C[C@@H]1CO[C@@H](C)CN1c1nc(Oc2ccc(C(=O)N(C)C)cc2F)nc(-c2ccc3[nH]ncc3c2)n1 [Compound 10161, 4-(4-(1H-indazol-5-yl)-6-((2S,5R)-2,5-dimethylmorpholino)-1,3,5-triazin-2-yloxy)-3-fluoro-N,N-dimethylbenzamide]	< 1000	> 10000	–	–
Cc1nc(N)sc1-c1nc(Oc2ccc(C(=O)N(C)C)cc2)nc(N2CCOCC2)n1 [Compound 10199, 4-((4-(2-amino-4-methylthiazol-5-yl)-6-morpholino-1,3,5-triazin-2-yl)oxy)-N,N-dimethylbenzamide]	–	< 1000	< 50	–
CC[C@H]1COCCN1c1nc(Oc2ccc(C(=O)N(C)C)cc2)nc(-c2cnc(N)s2)n1 [Compound 10081, (S)-4-((4-(2-Aminothiazol-5-yl)-6-(3-ethylmorpholino)-1,3,5-triazin-2-yl)oxy)-N,N-dimethylbenzamide]	< 1000	< 1000	> 50	> 50
CN(C)C(=O)c1ccc(Oc2nc(-c3ccc(N)nc3)nc(N3[C@@H]4CC[C@H]3COC4)n2)cc1 [Compound 10050, 4-(4-(6-aminopyridin-3-yl)-6-((1R,5S)-3-oxa-8-azabicyclo[3.2.1]octan-8-yl)-1,3,5-triazin-2-yloxy)-N,N-dimethylbenzamide]	< 1000	> 1000	> 50	–
C[C@H]1COCCN1c1nc(OC2CCN(C(=O)N(C)C)CC2)nc(-c2cnc(N)s2)n1 [Compound 10137, 4-(4-(2-aminothiazol-5-yl)-6-((S)-3-methylmorpholino)-1,3,5-triazin-2-yloxy)-N,N-dimethylpiperidine-1-carboxamide]	< 1000	< 1000	> 50	–
CN(C)C(=O)[C@H]1CC[C@H](Oc2nc(-c3ccc(N)nc3)nc(N3CCOCC3)n2)CC1 [Compound 10049, (1r,4r)-4-(4-(6-aminopyridin-3-yl)-6-morpholino-1,3,5-triazin-2-yloxy)-N,N-dimethylcyclohexanecarboxamide]	< 1000	< 1000	> 50	–
C[C@@H]1CN(c2nc(Oc3ccc(C(=O)N(C)C)cc3)nc(-c3cnc(N)s3)n2)[C@@H](C)CO1 [Compound 10076, 4-((4-(2-Aminothiazol-5-yl)-6-((2R,5S)-2,5-dimethylmorpholino)-1,3,5-triazin-2-yl)oxy)-N,N-dimethylbenzamide]	< 1000	> 1000	> 50	< 50
C[C@H]1COCCN1c1nc(Oc2ccc(C(=O)N(C)C)cc2)nc(-c2cnc(NC(=O)NC3CC3)s2)n1 [Compound 10093]	< 1000	< 1000	–	> 50
C[C@H]1COCCN1c1nc(Oc2ccc(C(=O)N(C)C)cc2)nc(-c2ccc(N)nc2)n1 [Compound 10096, (S)-4-((4-(6-Aminopyridin-3-yl)-6-(3-methylmorpholino)-1,3,5-triazin-2-yl)oxy)-N,N-dimethylbenzamide]	< 1000	< 1000	> 50	–
CN(C)C(=O)c1ccc(Oc2nc(-c3cnc(N)s3)nc(N3[C@@H]4CC[C@H]3COC4)n2)cc1 [Compound 10011, 4-(4-(2-aminothiazol-5-yl)-6-((1R,5S)-3-oxa-8-azabicyclo[3.2.1]octan-8-yl)-1,3,5-triazin-2-yloxy)-N,N-dimethylbenzamide]	< 1000	> 1000	> 50	–
CNC(=O)Nc1ncc(-c2nc(Oc3ccc(C(=O)N(C)C)cc3)nc(N3CCOC[C@@H]3C)n2)s1 [Compound 10091, (S)-N,N-dimethyl-4-((4-(3-methylmorpholino)-6-(2-(3-methylureido)thiazol-5-yl)-1,3,5-triazin-2-yl)oxy)benzamide]	< 1000	< 1000	> 50	–
CNC(=O)Nc1ncc(-c2nc(NC)nc(N3CCOC[C@@H]3C)n2)s1 [Compound 10135, 1-methyl-3-(5-(4-(methylamino)-6-((S)-3-methylmorpholino)-1,3,5-triazin-2-yl)thiazol-2-yl)urea]	–	–	< 50	< 50
CN(C)C(=O)c1ccc(Oc2nc(-c3cnc(N)s3)nc(N3CCO[C@H]4CCC[C@@H]43)n2)c(F)c1 [Compound 10146, 4-(4-(2-aminothiazol-5-yl)-6-((4aS,7aS)-hexahydrocyclopenta[b][1,4]oxazin-4(4aH)-yl)-1,3,5-triazin-2-yloxy)-3-fluoro-N,N-dimethylbenzamide]	< 1000	< 1000	–	–
CC1OCCN(c2nc(Oc3ccc(C(=O)N(C)C)cc3F)nc(-c3cnc(N)s3)n2)C1C (stereo not drawn) [Compound 10159, 4-(4-(2-aminothiazol-5-yl)-6-(2,3-dimethylmorpholino)-1,3,5-triazin-2-yloxy)-3-fluoro-N,N-dimethylbenzamide]	< 1000	< 1000	–	–
CN(C)C(=O)c1ccc(Oc2nc(Nc3nccs3)nc(N3CCOCC3)n2)cc1 [Compound 10191, N,N-dimethyl-4-((4-morpholino-6-(thiazol-2-ylamino)-1,3,5-triazin-2-yl)oxy)benzamide]	–	> 1000	< 50	–
C[C@@H]1COCCN1c1nc(Oc2ccc(C(=O)N(C)C)cc2)nc(-c2cnc(N)s2)n1 [Compound 10004, (R)-4-(4-(2-aminothiazol-5-yl)-6-(3-methylmorpholino)-1,3,5-triazin-2-yloxy)-N,N-dimethylbenzamide]	< 1000	> 1000	< 50	–
CC1COCCN1c1nc(Oc2ccc(C(=O)N(C)C)cc2)nc(-c2cnc(N)s2)n1 (stereo not drawn) [Compound 10006, 4-(4-(2-aminothiazol-5-yl)-6-(3-methylmorpholino)-1,3,5-triazin-2-yloxy)-N,N-dimethylbenzamide]	–	> 1000	< 50	> 50
CC(C(=O)N(C)C)c1ccc(Oc2nc(-c3cnc(N)s3)nc(N3CCOCC3)n2)cc1 (stereo not drawn) [Compound 10115, 2-(4-(4-(2-aminothiazol-5-yl)-6-morpholino-1,3,5-triazin-2-yloxy)phenyl)-N,N-dimethylpropanamide]	–	< 1000	> 50	–
C[C@H]1COCCN1c1nc(Oc2ccc(C(=O)N(C)C)cc2)nc(-c2cnc(N)nc2)n1 [Compound 10126, 4-(4-(2-aminopyrimidin-5-yl)-6-((S)-3-methylmorpholino)-1,3,5-triazin-2-yloxy)-N,N-dimethylbenzamide]	< 1000	< 1000	> 50	–
Nc1ccc(-c2nc(Oc3ccc4c(c3)CCC(=O)N4)nc(N3CCOCC3)n2)cn1 [Compound 10182, 6-((4-(6-aminopyridin-3-yl)-6-morpholino-1,3,5-triazin-2-yl)oxy)-3,4-dihydroquinolin-2(1H)-one]	> 1000	< 1000	> 50	–
C[C@H]1COCCN1c1nc(OC2CCC(C(=O)N(C)C)CC2)nc(-c2cccc(CO)c2)n1 (stereo partly drawn) [Compound 10147, (1R,4s)-4-(4-(3-(hydroxymethyl)phenyl)-6-((S)-3-methylmorpholino)-1,3,5-triazin-2-yloxy)-N,N-dimethylcyclohexanecarboxamide]	> 1000	–	–	> 50
